Values after ≈ are worked out from the molar mass of the structure shown. Where two headings read alike, the source gives them in different places.
Experiments:
wt Cdr1 ATPase activity = wt Cdr1 ATPase activity (Candida albicans, UniProt Q5ANA3); experiment: biochemical; settings: for Ki / IC50: CDR1 (wt); for Ki: Dixon plot, read-out: Ki (Cdr1 ATPase activity); for Vmax of ATPase activity in the presence of inhibitor: CDR1; for type of inhibition of ATPase activity (Lineweaver-Burk): wt Cdr1
AD/CDR1-G521R = experiment: MIC, modified CLSI M27-A3 broth microdilution; settings: for MIC: Saccharomyces cerevisiae, read-out: MIC (drug susceptibility); for Fold-reduced resistance level (MIC) relative to AD/CDR1: G521R, 1 = no change
[1] = system: AD/pABC3 (empty vector control, sensitive strain); experiment: microbe, parasite or virus in culture; settings: Saccharomyces cerevisiae
AD/CDR1-A713P = experiment: MIC, modified CLSI M27-A3 broth microdilution; settings: for MIC: Saccharomyces cerevisiae, read-out: MIC (drug susceptibility); for Fold-reduced resistance level (MIC) relative to AD/CDR1: A713P, 1 = no change
AD/CDR1-T1355N = experiment: MIC, modified CLSI M27-A3 broth microdilution; settings: for MIC: Saccharomyces cerevisiae, read-out: MIC (drug susceptibility); for Fold-reduced resistance level (MIC) relative to AD/CDR1: T1355N, 1 = no change
[2] = system: AD/CDR1 (AD1-8u- overexpressing wt Cdr1); experiment: MIC, modified CLSI M27-A3 broth microdilution; settings: Saccharomyces cerevisiae, read-out: MIC (drug susceptibility)
AD/CDR1-M639I = experiment: MIC, modified CLSI M27-A3 broth microdilution; settings: for Fold-reduced resistance level (MIC) relative to AD/CDR1: M639I, 1 = no change; for MIC: Saccharomyces cerevisiae, read-out: MIC (drug susceptibility)
[3] = system: AD/pABC3 (empty vector control, sensitive strain); settings: cited from earlier work
[4] = molecular target: wt Cdr1 (FLC efflux of AD/CDR1 cells) (Candida albicans, UniProt Q5ANA3); settings: for lowest inhibitor concentration necessary to achieve the lowest MICFLC / lowest MICFLC in the presence of inhibitor: CDR1; for lowest MICFLC in the presence of inhibitor: FLC 5 to 640 mg/L tested
Chain of wt Cdr1 (FLC efflux of AD/CDR1 cells) (Q5ANA3 whole entry, the tested form may be a part): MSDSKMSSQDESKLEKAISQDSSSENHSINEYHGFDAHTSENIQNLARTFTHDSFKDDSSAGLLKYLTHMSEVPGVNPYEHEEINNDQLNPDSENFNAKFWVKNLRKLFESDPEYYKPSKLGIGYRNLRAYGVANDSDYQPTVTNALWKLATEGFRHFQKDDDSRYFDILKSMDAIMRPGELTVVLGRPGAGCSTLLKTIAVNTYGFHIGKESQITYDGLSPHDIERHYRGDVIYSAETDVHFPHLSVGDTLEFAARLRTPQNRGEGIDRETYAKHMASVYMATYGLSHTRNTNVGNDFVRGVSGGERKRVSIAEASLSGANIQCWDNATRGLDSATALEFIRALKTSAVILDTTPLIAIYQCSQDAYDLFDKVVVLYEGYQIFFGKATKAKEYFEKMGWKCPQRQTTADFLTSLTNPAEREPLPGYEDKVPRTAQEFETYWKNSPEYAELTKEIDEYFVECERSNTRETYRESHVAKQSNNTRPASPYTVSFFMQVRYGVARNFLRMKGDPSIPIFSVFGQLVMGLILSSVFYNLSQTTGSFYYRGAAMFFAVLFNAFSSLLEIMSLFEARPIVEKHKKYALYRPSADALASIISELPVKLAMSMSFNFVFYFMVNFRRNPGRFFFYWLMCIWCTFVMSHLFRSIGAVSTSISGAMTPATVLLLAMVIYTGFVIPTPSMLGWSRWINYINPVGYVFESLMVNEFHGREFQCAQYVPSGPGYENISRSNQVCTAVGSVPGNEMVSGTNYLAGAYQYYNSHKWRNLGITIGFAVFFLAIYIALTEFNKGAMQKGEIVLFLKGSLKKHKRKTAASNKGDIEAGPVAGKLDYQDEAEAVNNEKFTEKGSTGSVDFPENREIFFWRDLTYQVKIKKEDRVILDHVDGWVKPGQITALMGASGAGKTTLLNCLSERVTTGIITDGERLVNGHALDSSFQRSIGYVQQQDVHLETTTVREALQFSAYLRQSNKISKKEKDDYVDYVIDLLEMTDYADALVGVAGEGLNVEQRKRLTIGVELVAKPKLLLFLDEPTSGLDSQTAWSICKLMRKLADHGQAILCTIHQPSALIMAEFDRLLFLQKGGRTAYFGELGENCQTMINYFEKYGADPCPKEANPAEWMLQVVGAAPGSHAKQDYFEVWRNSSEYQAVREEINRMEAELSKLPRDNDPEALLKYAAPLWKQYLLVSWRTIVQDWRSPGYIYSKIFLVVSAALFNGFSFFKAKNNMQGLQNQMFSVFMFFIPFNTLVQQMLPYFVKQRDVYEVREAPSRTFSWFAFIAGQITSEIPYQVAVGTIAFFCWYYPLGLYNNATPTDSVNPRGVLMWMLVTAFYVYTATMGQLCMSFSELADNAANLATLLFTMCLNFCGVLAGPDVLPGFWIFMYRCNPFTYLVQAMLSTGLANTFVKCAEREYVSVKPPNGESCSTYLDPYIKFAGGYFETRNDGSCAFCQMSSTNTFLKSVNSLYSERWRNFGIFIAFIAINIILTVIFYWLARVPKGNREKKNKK

[5] = molecular target: Cdr1-A713P (FLC transport) (Candida albicans, UniProt Q5ANA3, A713P); experiment: Agarose diffusion FLC chemosensitization assay; assay type: cell-based; settings: 0.25× MICFLC, disc
Chain of Cdr1-A713P (FLC transport) (Q5ANA3 whole entry A713P, the tested form may be a part): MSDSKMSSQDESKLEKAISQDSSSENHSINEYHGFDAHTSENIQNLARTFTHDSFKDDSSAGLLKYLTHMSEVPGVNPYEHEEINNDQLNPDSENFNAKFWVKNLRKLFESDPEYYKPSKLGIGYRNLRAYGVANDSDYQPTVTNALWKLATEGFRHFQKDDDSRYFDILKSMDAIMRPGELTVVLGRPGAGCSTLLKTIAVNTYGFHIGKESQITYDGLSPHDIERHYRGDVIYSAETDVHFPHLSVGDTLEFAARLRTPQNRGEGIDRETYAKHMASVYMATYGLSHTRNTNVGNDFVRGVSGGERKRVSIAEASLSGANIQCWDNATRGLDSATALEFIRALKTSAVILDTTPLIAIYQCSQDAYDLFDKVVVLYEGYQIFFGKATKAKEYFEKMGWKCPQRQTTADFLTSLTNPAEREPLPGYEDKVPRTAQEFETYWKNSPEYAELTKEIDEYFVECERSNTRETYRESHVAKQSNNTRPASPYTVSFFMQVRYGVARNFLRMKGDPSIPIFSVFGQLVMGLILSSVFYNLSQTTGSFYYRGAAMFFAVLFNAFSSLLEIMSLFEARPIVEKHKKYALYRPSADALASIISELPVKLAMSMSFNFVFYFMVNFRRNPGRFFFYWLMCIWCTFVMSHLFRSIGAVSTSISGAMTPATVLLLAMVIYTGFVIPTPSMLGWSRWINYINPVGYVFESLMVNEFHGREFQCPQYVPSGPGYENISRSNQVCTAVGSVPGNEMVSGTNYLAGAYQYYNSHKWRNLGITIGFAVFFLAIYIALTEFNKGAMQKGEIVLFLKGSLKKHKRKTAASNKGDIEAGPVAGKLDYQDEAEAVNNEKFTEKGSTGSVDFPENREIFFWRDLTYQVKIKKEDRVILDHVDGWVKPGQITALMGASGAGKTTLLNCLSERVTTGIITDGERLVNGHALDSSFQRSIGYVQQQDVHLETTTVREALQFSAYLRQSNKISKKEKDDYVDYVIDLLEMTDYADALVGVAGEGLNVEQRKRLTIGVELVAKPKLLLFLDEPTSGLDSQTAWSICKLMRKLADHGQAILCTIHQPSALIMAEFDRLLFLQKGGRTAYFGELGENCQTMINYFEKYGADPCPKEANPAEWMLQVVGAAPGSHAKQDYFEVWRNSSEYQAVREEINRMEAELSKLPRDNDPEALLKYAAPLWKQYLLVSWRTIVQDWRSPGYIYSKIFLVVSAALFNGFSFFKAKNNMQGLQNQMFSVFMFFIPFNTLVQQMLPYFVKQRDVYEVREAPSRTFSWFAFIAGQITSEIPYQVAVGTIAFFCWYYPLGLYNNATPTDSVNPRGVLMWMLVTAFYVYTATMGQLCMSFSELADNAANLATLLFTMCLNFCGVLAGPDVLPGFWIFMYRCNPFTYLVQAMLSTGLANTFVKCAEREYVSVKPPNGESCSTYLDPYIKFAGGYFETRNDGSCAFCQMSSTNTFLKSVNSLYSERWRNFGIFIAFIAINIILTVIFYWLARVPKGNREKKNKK
Protocol: (§1) Compounds were tested for inhibition of FLC transport by yeast strains overexpressing Cdr1 or Cdr1 mutations.

[6] = molecular target: Cdr1-T1355N (FLC transport) (Candida albicans, UniProt Q5ANA3, T1355N); experiment: Agarose diffusion FLC chemosensitization assay; assay type: cell-based; settings: 0.25× MICFLC, disc
Protocol: as §1

[7] = molecular target: Cdr1-G521R (FLC transport) (Candida albicans, UniProt Q5ANA3, G521R); experiment: Agarose diffusion FLC chemosensitization assay; assay type: cell-based; settings: 0.25× MICFLC, disc
Protocol: as §1

[8] = molecular target: Cdr1-M639I (FLC transport) (Candida albicans, UniProt Q5ANA3, M639I); experiment: Agarose diffusion FLC chemosensitization assay; assay type: cell-based; settings: 0.25× MICFLC, disc
Protocol: as §1

[9] = from Fig. 4, read-out: IC50 for inhibition of Cdr1 ATPase activity
[10] = read-out: MIC (drug susceptibility), strain AD/pABC3
[11] = read-out: MIC (drug susceptibility)
[12] = > = only partial inhibition, none = no reduction at highest concentration, read-out: Estimated IC50 for substrate inhibition of the ATPase activity

Chain of wt Cdr1 ATPase activity (Q5ANA3 whole entry): as the sequence (Q5ANA3 whole entry, the tested form may be a part) above

Compound	MIC (AD/CDR1-G521R)	MIC [1, 10]	MIC (AD/CDR1-A713P)	MIC (AD/CDR1-T1355N)	Fold-reduced resistance level (MIC) relative to AD/CDR1 (AD/CDR1-T1355N)	MIC [2]	Fold-reduced resistance level (MIC) relative to AD/CDR1 (AD/CDR1-M639I)	MIC (AD/CDR1-M639I)	Fold-reduced resistance level (MIC) relative to AD/CDR1 (AD/CDR1-G521R)	MIC [1, 11]	Fold-reduced resistance level (MIC) relative to AD/CDR1 (AD/CDR1-A713P)	IC50 (wt Cdr1 ATPase activity; [12])	other results
[O]=[V]([O-])([O-])[O-] [Vanadate, vanadate]													Ki (wt Cdr1 ATPase activity): 960 ± 80 nM; IC50 (wt Cdr1 ATPase activity; [9]): 1.2 µM; Vmax of ATPase activity in the presence of inhibitor (wt Cdr1 ATPase activity; [I] 0.5 μM): 161 nmol/min/mg; Vmax of ATPase activity in the presence of inhibitor (wt Cdr1 ATPase activity; [I] 2.0 μM): 90 nmol/min/mg; type of inhibition of ATPase activity (Lineweaver-Burk) (wt Cdr1 ATPase activity): uncompetitive inhibitor
CC[C@@H]([C@H](C)O)n1ncn(-c2ccc(N3CCN(c4ccc(OC[C@@H]5CO[C@@](Cn6cncn6)(c6ccc(F)cc6F)C5)cc4)CC3)cc2)c1=O [PSC, posaconazole]	0.063 µg/mL (≈ 0.0899 µM)	0.016 µg/mL (≈ 0.0228 µM)	1 µg/mL (≈ 1.43 µM)	2 µg/mL (≈ 2.85 µM)	16 fold	32 µg/mL (≈ 45.7 µM)	16 fold	2 µg/mL (≈ 2.85 µM)					
C[C@@H]1C[C@@H]([C@H](O)CC2CC(=O)NC(=O)C2)C(=O)[C@@H](C)C1 [CHX, cycloheximide]	1 µg/mL (≈ 3.55 µM)		1 µg/mL (≈ 3.55 µM)	2 µg/mL (≈ 7.11 µM)	1 fold	2 µg/mL (≈ 7.11 µM)	2 fold	1 µg/mL (≈ 3.55 µM)	2 fold	0.016 µg/mL (≈ 0.0569 µM)	2 fold		
CC/N=c1\cc2oc3cc(NCC)c(C)cc3c(-c3ccccc3C(=O)OCC)c-2cc1C [R6G, rhodamine 6G]	4 µg/mL (≈ 9.04 µM)	0.5 µg/mL (≈ 1.13 µM)	32 µg/mL (≈ 72.3 µM)	32 µg/mL (≈ 72.3 µM)	1 fold	32 µg/mL (≈ 72.3 µM)	2 fold	16 µg/mL (≈ 36.2 µM)	8 fold			32 µM	
C=CC[C@@H]1/C=C(\C)C[C@H](C)C[C@H](OC)[C@H]2O[C@@](O)(C(=O)C(=O)N3CCCC[C@H]3C(=O)O[C@H](/C(C)=C/[C@@H]3CC[C@@H](O)[C@H](OC)C3)[C@H](C)[C@@H](O)CC1=O)[C@H](C)C[C@@H]2OC [FK506]													synergy with the Cdr1 substrates FLC and R6G [3]: no synergy; Ki (wt Cdr1 ATPase activity): 1210 ± 240 nM; IC50 (wt Cdr1 ATPase activity; [9]): 1.25 µM; Vmax of ATPase activity in the presence of inhibitor (wt Cdr1 ATPase activity; [I] 0.5 μM): 233 nmol/min/mg; Vmax of ATPase activity in the presence of inhibitor (wt Cdr1 ATPase activity; [I] 1.0 μM): 164 nmol/min/mg; type of inhibition of ATPase activity (Lineweaver-Burk) (wt Cdr1 ATPase activity): noncompetitive inhibition; FICI (inhibitor/FLC combination) [4]: <0.26; IC50 [4]: 2500 nM; lowest inhibitor concentration necessary to achieve the lowest MICFLC [4]: 40 µM; lowest MICFLC in the presence of inhibitor [4]: 5 mg/L; susceptibility of FLC transport to inhibitor on agar [5]: resistant; susceptibility of FLC transport to inhibitor on agar [6]: remained susceptible; susceptibility of FLC transport to inhibitor on agar [7]: resistant; susceptibility of FLC transport to inhibitor on agar [8]: remained susceptible
CO[C@@H]1C[C@@H](C[C@H]2CC[C@H](C)[C@H]([C@@H](C)C(=O)O)O2)O[C@]2(O[C@](C)([C@H]3CC[C@@](C)([C@@H]4O[C@@H]([C@H]5O[C@@](O)(CO)[C@H](C)C[C@@H]5C)C[C@@H]4C)O3)C[C@H]2C)[C@@H]1C [NIG, nigericin]	0.25 µg/mL (≈ 0.345 µM)	0.063 µg/mL (≈ 0.0869 µM)	8 µg/mL (≈ 11 µM)	128 µg/mL (≈ 177 µM)	1 fold	128 µg/mL (≈ 177 µM)	1 fold	128 µg/mL (≈ 177 µM)			16 fold	> 256 µM	
CC[C@@]1([C@@H]2O[C@@H]([C@H]3O[C@@](O)(CO)[C@H](C)C[C@@H]3C)C[C@@H]2C)CC[C@H]([C@]2(C)CC[C@]3(C[C@H](O)[C@@H](C)[C@@H]([C@@H](C)[C@@H](OC)[C@H](C)C(=O)O)O3)O2)O1 [MON, monensin]	0.5 µg/mL (≈ 0.745 µM)	0.031 µg/mL (≈ 0.0462 µM)	128 µg/mL (≈ 191 µM)	128 µg/mL (≈ 191 µM)	1 fold	128 µg/mL (≈ 191 µM)	1 fold	128 µg/mL (≈ 191 µM)	256 fold			> 256 µM	
CC[C@H]1/C=C/C=C/C[C@@H](C)[C@H](O)[C@@](C)(O)C(=O)[C@@H](C)[C@H](O)[C@@H](C)C(=O)[C@@H](C)[C@H](O)[C@@H](C)/C=C/C(=O)O[C@@H]2[C@H](C)[C@H](CC1)O[C@]1(CC[C@H](C)[C@H](C[C@@H](C)O)O1)[C@H]2C [Oligomycin, oligomycin]													Ki (wt Cdr1 ATPase activity): 540 ± 10 nM; Vmax of ATPase activity in the presence of inhibitor (wt Cdr1 ATPase activity; [I] 0.5 μM): 185 nmol/min/mg; Vmax of ATPase activity in the presence of inhibitor (wt Cdr1 ATPase activity; [I] 1.0 μM): 132 nmol/min/mg; type of inhibition of ATPase activity (Lineweaver-Burk) (wt Cdr1 ATPase activity): noncompetitive inhibition
Clc1ccccc1C(c1ccccc1)(c1ccccc1)n1ccnc1 [CLT, clotrimazole]			1 µg/mL (≈ 2.9 µM)	4 µg/mL (≈ 11.6 µM)		8 µg/mL (≈ 23.2 µM)		8 µg/mL (≈ 23.2 µM)		0.002 µg/mL (≈ 0.0058 µM)			
C/C1=C/C(=O)O[C@@H]2C[C@@H](CC[C@H](C)/C=C\C=C\CC1)O[C@@](O)([C@@H]1CSC(=O)N1)C2 [LaA, latrunculin A]	0.125 µg/mL (≈ 0.297 µM)		2 µg/mL (≈ 4.74 µM)	2 µg/mL (≈ 4.74 µM)	4 fold	8 µg/mL (≈ 19 µM)	1 fold	8 µg/mL (≈ 19 µM)		0.016 µg/mL (≈ 0.038 µM)	4 fold		
Clc1ccc(COC(Cn2ccnc2)c2ccc(Cl)cc2Cl)c(Cl)c1 (stereo not shown) [MCZ, miconazole]	0.5 µg/mL (≈ 1.2 µM)		1 µg/mL (≈ 2.4 µM)	2 µg/mL (≈ 4.81 µM)	4 fold	8 µg/mL (≈ 19.2 µM)	4 fold	2 µg/mL (≈ 4.81 µM)	16 fold	0.008 µg/mL (≈ 0.0192 µM)	8 fold		
beauvericin													synergy with the Cdr1 substrates FLC and R6G [3]: no synergy; Vmax of ATPase activity in the presence of inhibitor (wt Cdr1 ATPase activity; [I] 0.2 μM): 132 nmol/min/mg; Vmax of ATPase activity in the presence of inhibitor (wt Cdr1 ATPase activity; [I] 0.5 μM): 63 nmol/min/mg; type of inhibition of ATPase activity (Lineweaver-Burk) (wt Cdr1 ATPase activity): noncompetitive inhibition; FICI (inhibitor/FLC combination) [4]: <0.13; lowest inhibitor concentration necessary to achieve the lowest MICFLC [4]: 1.25 µM; lowest MICFLC in the presence of inhibitor [4]: 5 mg/L; susceptibility of FLC transport to inhibitor on agar [5]: remained susceptible; susceptibility of FLC transport to inhibitor on agar [6]: slightly more resistant; susceptibility of FLC transport to inhibitor on agar [7]: resistant
CCC(C)n1ncn(-c2ccc(N3CCN(c4ccc(OCC5COC(Cn6cncn6)(c6ccc(Cl)cc6Cl)O5)cc4)CC3)cc2)c1=O (stereo not shown) [ITC, itraconazole]	0.25 µg/mL (≈ 0.354 µM)	0.031 µg/mL (≈ 0.0439 µM)	1 µg/mL (≈ 1.42 µM)	16 µg/mL (≈ 22.7 µM)	2 fold	32 µg/mL (≈ 45.3 µM)	2 fold	16 µg/mL (≈ 22.7 µM)	128 fold			> 32 µM	
C[C@@H](c1ncncc1F)[C@](O)(Cn1cncn1)c1ccc(F)cc1F [VRC, voriconazole]	1 µg/mL (≈ 2.86 µM)	0.016 µg/mL (≈ 0.0458 µM)	4 µg/mL (≈ 11.5 µM)	8 µg/mL (≈ 22.9 µM)	1 fold	8 µg/mL (≈ 22.9 µM)	1 fold	8 µg/mL (≈ 22.9 µM)	8 fold		2 fold		
CC(=O)N1CCN(c2ccc(OCC3COC(Cn4ccnc4)(c4ccc(Cl)cc4Cl)O3)cc2)CC1 (stereo not shown) [KTC, ketoconazole]	0.125 µg/mL (≈ 0.235 µM)		1 µg/mL (≈ 1.88 µM)	4 µg/mL (≈ 7.53 µM)	2 fold	8 µg/mL (≈ 15.1 µM)	2 fold	4 µg/mL (≈ 7.53 µM)		0.008 µg/mL (≈ 0.0151 µM)	8 fold	13 µM	
C/C=C/C/C=C/CCC(=O)[C@H]1O[C@H]1C(N)=O [CER, cerulenin]	4 µg/mL (≈ 17.9 µM)	0.25 µg/mL (≈ 1.12 µM)	4 µg/mL (≈ 17.9 µM)	4 µg/mL (≈ 17.9 µM)	2 fold	8 µg/mL (≈ 35.8 µM)	2 fold	4 µg/mL (≈ 17.9 µM)	2 fold		2 fold		

Reference: paper PMC8765293, “Inhibitor-Resistant Mutants Give Important Insights into Candida albicans ABC Transporter Cdr1 Substrate Specificity and Help Elucidate Efflux Pump Inhibition” (Antimicrobial Agents and Chemotherapy, 2022)
